Source: PubChem BioAssay AID330 (DTP/NCI, 2004)
Values joined by “and” are separate entries in the source; they are usually repeats but may differ in a detail not shown here. Equal values may be shown once. Inconclusive results and toxic doses are left out.

Tested on: P388 leukemia ip, CD2F1 mice, survival T/C
Assay: NCI In Vivo Anticancer Drug Screen. Data for tumor model P388 Leukemia (intraperitoneal) in CD2F1 (CDF1) mice
Details: endpoint: median survival time, higher = longer survival
Procedure, shortened: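 Mice carrying the transplanted tumor received test compound or vehicle. Survival was recorded in each group, and the value is the treated-group measurement divided by that of the vehicle-treated control group.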

[1] = dose: 50.0 mg/kg/injection, schedule: Q01DX005 (ip), vehicle: saline with Tween-80
[2] = dose: 100.0 mg/kg/injection, schedule: Q01DX005 (ip), vehicle: saline with Tween-80
[3] = dose: 200.0 mg/kg/injection, schedule: Q01DX005 (ip), vehicle: saline with Tween-80
[4] = dose: 6.25 mg/kg/injection, schedule: Q01DX009 (ip), vehicle: Klucel (hydroxypropylcellulose) (HPC)
[5] = dose: 25.0 mg/kg/injection, schedule: Q04DX002 (ip), vehicle: saline with Tween-80
[6] = dose: 50.0 mg/kg/injection, schedule: Q04DX002 (ip), vehicle: saline with Tween-80
[7] = dose: 100.0 mg/kg/injection, schedule: Q04DX002 (ip), vehicle: saline with Tween-80
[8] = dose: 200.0 mg/kg/injection, schedule: Q04DX002 (ip), vehicle: saline with Tween-80
[9] = dose: 50.0 mg/kg/injection, schedule: Q01DX009 (ip), vehicle: saline with Tween-80
[10] = dose: 100.0 mg/kg/injection, schedule: Q01DX009 (ip), vehicle: saline with Tween-80
[11] = dose: 12.5 mg/kg/injection, schedule: Q01DX009 (ip), vehicle: saline
[12] = dose: 25.0 mg/kg/injection, schedule: Q01DX009 (ip), vehicle: saline
[13] = dose: 50.0 mg/kg/injection, schedule: Q01DX009 (ip), vehicle: saline
[14] = dose: 100.0 mg/kg/injection, schedule: Q01DX009 (ip), vehicle: saline
[15] = dose: 50.0 mg/kg/injection, schedule: Q01DX009 (ip), vehicle: suspension in saline
[16] = dose: 100.0 mg/kg/injection, schedule: Q01DX009 (ip), vehicle: suspension in saline
[17] = dose: 200.0 mg/kg/injection, schedule: Q01DX009 (ip), vehicle: suspension in saline

## NCC(=O)CN.[Cl-].[Cl-].[Pt+2]
dose: 25.0 mg/kg/injection, schedule: Q04DX003 (ip), vehicle: other
  T/C: 121 % of control
dose: 200.0 mg/kg/injection, schedule: Q04DX003 (ip), vehicle: other
  T/C: 158 % of control
dose: 400.0 mg/kg/injection, schedule: Q04DX003 (ip), vehicle: other
  T/C: 177 % of control

## CCOC(=O)CC1=CSC(=C(C(=O)OCC)C(=O)OCC)N1c1ccccc1
[1]
  T/C: 96 % of control
[2]
  T/C: 91 % of control
[3]
  T/C: 86 % of control

## O=C1OC(c2ccccc2)(c2ccccc2)CC1CC(O)(c1ccccc1)c1ccccc1 (centres undefined)
[1]
  T/C: 98 % of control
[2]
  T/C: 90 % of control

## CN=P1(NC)NP(=NC)(NC)NP(=NC)(NC)NP(=NC)(NC)N1.[Cl-].[Cl-].[Cl-].[Cl-].[Pt+2] (centres undefined)
dose: 12.5 mg/kg/injection, schedule: Q04DX003 (ip), vehicle: saline with Tween-80
  T/C: 102 % of control
dose: 25.0 mg/kg/injection, schedule: Q04DX003 (ip), vehicle: saline with Tween-80
  T/C: 111 % of control
dose: 50.0 mg/kg/injection, schedule: Q04DX003 (ip), vehicle: saline with Tween-80
  T/C: 120 % of control
dose: 100.0 mg/kg/injection, schedule: Q04DX003 (ip), vehicle: saline with Tween-80
  T/C: 109 % of control

## O=C(O)CNC(=O)C(Cc1c[nH]c2ccccc12)NC(=O)OCc1ccccc1 (centres undefined)
[1]
  T/C: 95 % of control
[2]
  T/C: 94 % of control
[3]
  T/C: 91 % of control

## CC1C(n2[nH]c(=O)n(C)c2=O)c2ccccc2-n2c(=O)n(C)c(=O)n21 (centres undefined)
dose: 50.0 mg/kg/injection, schedule: Q01DX005 (ip), vehicle: Klucel (hydroxypropylcellulose) (HPC)
  T/C: 96 % of control
dose: 100.0 mg/kg/injection, schedule: Q01DX005 (ip), vehicle: Klucel (hydroxypropylcellulose) (HPC)
  T/C: 101 % of control
dose: 200.0 mg/kg/injection, schedule: Q01DX005 (ip), vehicle: Klucel (hydroxypropylcellulose) (HPC)
  T/C: 103 % of control

## CCCCCCCCCC(C)CC(=O)NCCCN(C)CCCCN(C)C (centres undefined)
dose: 0.78 mg/kg/injection, schedule: Q01DX009 (ip), vehicle: Klucel (hydroxypropylcellulose) (HPC)
  T/C: 107 % of control
dose: 1.56 mg/kg/injection, schedule: Q01DX009 (ip), vehicle: Klucel (hydroxypropylcellulose) (HPC)
  T/C: 105 % of control
dose: 3.13 mg/kg/injection, schedule: Q01DX009 (ip), vehicle: Klucel (hydroxypropylcellulose) (HPC)
  T/C: 112 % of control
[4]
  T/C: 87 % of control

## N#CC1C(=O)NN=C1c1cc2ccccc2oc1=O (centres undefined)
dose: 100.0 mg/kg/injection, schedule: Q01DX001 (ip), vehicle: saline
  T/C: 97 % of control
dose: 200.0 mg/kg/injection, schedule: Q01DX001 (ip), vehicle: saline
  T/C: 100 % of control
dose: 400.0 mg/kg/injection, schedule: Q01DX001 (ip), vehicle: saline
  T/C: 97 % of control

## COc1ccc(C=C2C(=O)C=CC2=O)cc1
dose: 1.25 mg/kg/injection, schedule: Q04DX002 (ip), vehicle: saline with Tween-80
  T/C: 106 % of control
dose: 2.5 mg/kg/injection, schedule: Q04DX002 (ip), vehicle: saline with Tween-80
  T/C: 97 % of control
dose: 5.0 mg/kg/injection, schedule: Q04DX002 (ip), vehicle: saline with Tween-80
  T/C: 99 % of control

## CCNCC(=O)Nc1ccc2c(c1)C(=O)c1ccc(NC(=O)CNCC)cc1C2=O
[5]
  T/C: 100 % of control
[6]
  T/C: 110 % of control
[7]
  T/C: 102 % of control
[8]
  T/C: 108 % of control and 93 % of control

## CCCOP(=O)(NNP(=O)(OCCC)OCCC)OCCC
[9]
  T/C: 106 % of control
[10]
  T/C: 116 % of control
dose: 200.0 mg/kg/injection, schedule: Q01DX009 (ip), vehicle: saline with Tween-80
  T/C: 116 % of control

## [CH3][Sn]1([CH3])[O]c2ccccc2C=NCCN=Cc2ccccc2[O]1
[11]
  T/C: 100 % of control and 91 % of control
[12]
  T/C: 106 % of control and 86 % of control
[13]
  T/C: 91 % of control
[14]
  T/C: 107 % of control

## Cc1nc(N)n[nH]1
[13]
  T/C: 102 % of control
[14]
  T/C: 109 % of control
dose: 200.0 mg/kg/injection, schedule: Q01DX009 (ip), vehicle: saline
  T/C: 105 % of control
dose: 400.0 mg/kg/injection, schedule: Q01DX009 (ip), vehicle: saline
  T/C: 96 % of control

## [CH3][Sn]([Cl])([Cl])[c]1ccccc1
dose: 1.56 mg/kg/injection, schedule: Q04DX003 (ip), vehicle: saline
  T/C: 114 % of control
dose: 3.12 mg/kg/injection, schedule: Q04DX003 (ip), vehicle: saline
  T/C: 109 % of control
dose: 6.25 mg/kg/injection, schedule: Q04DX003 (ip), vehicle: saline
  T/C: 106 % of control and 117 % of control

## O=C1c2ccccc2C2NCCCN12 (centres undefined)
[15]
  T/C: 93 % of control
[16]
  T/C: 102 % of control
[17]
  T/C: 107 % of control
dose: 400.0 mg/kg/injection, schedule: Q01DX009 (ip), vehicle: suspension in saline
  T/C: 111 % of control

## O=c1[nH]cc(Br)c2sccc12
dose: 25.0 mg/kg/injection, schedule: Q01DX009 (ip), vehicle: saline with Tween-80
  T/C: 109 % of control
[9]
  T/C: 109 % of control
[10]
  T/C: 109 % of control

## Cc1cc2nc3[nH]c(=O)c4ccccc4c(=O)n3c2cc1C
dose: 100.0 mg/kg/injection, schedule: Q01DX001 (ip), vehicle: Klucel (hydroxypropylcellulose) (HPC)
  T/C: 98 % of control
dose: 200.0 mg/kg/injection, schedule: Q01DX001 (ip), vehicle: Klucel (hydroxypropylcellulose) (HPC)
  T/C: 92 % of control

## c1ccc2c(SCCCCCCCCCSc3c4ccccc4nc4ccccc34)c3ccccc3nc2c1
dose: 60.0 mg/kg/injection, schedule: Q01DX005 (ip), vehicle: Klucel (hydroxypropylcellulose) (HPC)
  T/C: 107 % of control
dose: 120.0 mg/kg/injection, schedule: Q01DX005 (ip), vehicle: Klucel (hydroxypropylcellulose) (HPC)
  T/C: 104 % of control
dose: 240.0 mg/kg/injection, schedule: Q01DX005 (ip), vehicle: Klucel (hydroxypropylcellulose) (HPC)
  T/C: 90 % of control

## O=c1ccn(C2OC(CO)C(O)C2Cl)c(=O)[nH]1 (centres undefined)
[4]
  T/C: 101 % of control
dose: 12.5 mg/kg/injection, schedule: Q01DX009 (ip), vehicle: Klucel (hydroxypropylcellulose) (HPC)
  T/C: 104 % of control
dose: 25.0 mg/kg/injection, schedule: Q01DX009 (ip), vehicle: Klucel (hydroxypropylcellulose) (HPC)
  T/C: 109 % of control
dose: 50.0 mg/kg/injection, schedule: Q01DX009 (ip), vehicle: Klucel (hydroxypropylcellulose) (HPC)
  T/C: 105 % of control
dose: 100.0 mg/kg/injection, schedule: Q01DX009 (ip), vehicle: Klucel (hydroxypropylcellulose) (HPC)
  T/C: 101 % of control
dose: 200.0 mg/kg/injection, schedule: Q01DX009 (ip), vehicle: Klucel (hydroxypropylcellulose) (HPC)
  T/C: 104 % of control

## COc1cc(NCCCCCNC(C)C)c2ncc(C)c(C)c2c1
dose: 12.5 mg/kg/injection, schedule: Q01DX005 (ip), vehicle: saline
  T/C: 102 % of control
dose: 25.0 mg/kg/injection, schedule: Q01DX005 (ip), vehicle: saline
  T/C: 100 % of control
dose: 50.0 mg/kg/injection, schedule: Q01DX005 (ip), vehicle: saline
  T/C: 100 % of control

## S=C(NC12CC3CC(CC(C3)C1)C2)[NH][Sn]([c]1ccccc1)([c]1ccccc1)[c]1ccccc1
dose: 0.78 mg/kg/injection, schedule: Q01DX009 (ip), vehicle: saline
  T/C: 92 % of control
dose: 1.56 mg/kg/injection, schedule: Q01DX009 (ip), vehicle: saline
  T/C: 96 % of control
dose: 3.13 mg/kg/injection, schedule: Q01DX009 (ip), vehicle: saline
  T/C: 100 % of control
dose: 12.5 mg/kg/injection, schedule: Q01DX009 (ip), vehicle: saline with Tween-80
  T/C: 117 % of control

## CC(=O)C(C)OP(=O)(O)OCC[N+](C)(C)C (centres undefined)
[11]
  T/C: 100 % of control
[12]
  T/C: 104 % of control
[13]
  T/C: 114 % of control

## FS(F)(F)(F)(F)c1cccc(NC(=S)SCc2ccc3c(c2)OCO3)c1
[15]
  T/C: 102 % of control
[16]
  T/C: 106 % of control
[17]
  T/C: 102 % of control

## CC(=O)N(O)c1ccc(Cl)cc1
[5]
  T/C: 100 % of control
[6]
  T/C: 102 % of control
[7]
  T/C: 100 % of control
[8]
  T/C: 105 % of control

## O=C1NC(=O)N(/N=C/c2ccc(-c3ccc(Cl)c(Cl)c3)o2)C1O (centres undefined)
[6]
  T/C: 100 % of control
[7]
  T/C: 99 % of control
[8]
  T/C: 101 % of control
